Values joined by “and” are separate entries in the source; they are usually repeats but may differ in a detail not shown here. Equal values may be shown once.
What was measured:
Assay type in all cases: cell-based, human
NKCC1 pThr203/207/212 = experiment: Immunoblot of NKCC1 p-Thr203/Thr207/Thr212 in HEK-293 cells
Method: (§1) Band intensities were quantitated with ImageJ software. ***p < 0.001; **p < 0.01; *p < 0.05; ns, nonsignificant [by one-way ANOVA with post hoc testing (n = 6, error bars represent the mean ± SEM)].
(§2) Thirty-six hours post transfection, cells were stimulated with either control isotonic or hypotonic medium for a period of 30 min. […] Protein concentrations were determined using the Bradford method. Cells were treated with the indicated concentrations of the SPAK/OSR1 inhibitors.

KCC3 pThr1048 = experiment: Immunoblot of KCC site 2 phosphorylation (KCC3 Thr1048) in HEK-293 cells transfected with FLAG-KCC3
KCC3 pThr991 = experiment: Immunoblot of KCC site 1 phosphorylation (KCC3 Thr991) in HEK-293 cells transfected with FLAG-KCC3
SPAK pSer373 = experiment: Immunoblot of SPAK/OSR1 p-Ser373/Ser325 in HEK-293 cells
Method: as §1, §2

[1] = Hypotonic low Cl, compound concentration 1 (unit not given)
[2] = Hypotonic low Cl, compound concentration 3 (unit not given)
[3] = Isotonic control, compound concentration 1 (unit not given)
[4] = Isotonic control, compound concentration 3 (unit not given)
[5] = Isotonic control, compound concentration 10 (unit not given)
[6] = Hypotonic low Cl, compound concentration 10 (unit not given)

Row | SMILES | pThrNKCC1 / NKCC1 (NKCC1 pThr203/207/212; [1]) | pThrNKCC1 / NKCC1 (NKCC1 pThr203/207/212; [2]) | pThrNKCC1 / NKCC1 (NKCC1 pThr203/207/212; [3]) | pThrNKCC1 / NKCC1 (NKCC1 pThr203/207/212; [4]) | pThrNKCC1 / NKCC1 (NKCC1 pThr203/207/212; [5]) | Site-2 phospho / KCC (KCC3 pThr1048; [1]) | Site-2 phospho / KCC (KCC3 pThr1048; [2]) | Site-2 phospho / KCC (KCC3 pThr1048; [6]) | Site-2 phospho / KCC (KCC3 pThr1048; [3]) | Site-2 phospho / KCC (KCC3 pThr1048; [4]) | Site-2 phospho / KCC (KCC3 pThr1048; [5]) | Site-1 phospho / KCC (KCC3 pThr991; [1]) | Site-1 phospho / KCC (KCC3 pThr991; [2]) | Site-1 phospho / KCC (KCC3 pThr991; [6]) | Site-1 phospho / KCC (KCC3 pThr991; [3]) | Site-1 phospho / KCC (KCC3 pThr991; [4]) | Site-1 phospho / KCC (KCC3 pThr991; [5]) | pSer373 / SPAK (SPAK pSer373; [1]) | pSer373 / SPAK (SPAK pSer373; [2]) | pSer373 / SPAK (SPAK pSer373; [6]) | also measured
1 | Cc1cc(C(C#N)c2ccc(Cl)cc2)c(Cl)cc1NC(=O)c1cccc(F)c1O (centres unmarked) [ZT-1h] | 0.317 and 0.294 and 0.283 and 0.306 | 0.131 and 0.156 and 0.1342 and 0.125 | 0.112 and 0.132 and 0.122 and 0.109 | 0.022 and 0.043 and 0.035 and 0.028 | 0.008 and 0.006 and 0.004 and 0.005 | 0.281 and 0.258 and 0.279 and 0.266 | 0.143 and 0.176 and 0.159 and 0.132 | 0.021 and 0.042 and 0.035 and 0.025 | 0.271 and 0.243 and 0.219 and 0.263 | 0.186 and 0.176 and 0.131 and 0.159 | 0.052 and 0.041 and 0.03 and 0.048 | 0.488 and 0.427 and 0.359 and 0.502 | 0.412 and 0.376 and 0.392 and 0.431 | 0.165 and 0.187 and 0.122 and 0.203 | 0.455 and 0.431 and 0.5108 and 0.482 | 0.419 and 0.386 and 0.354 and 0.437 | 0.215 and 0.201 and 0.251 and 0.276 | 0.297 and 0.248 and 0.275 and 0.253 | 0.179 and 0.135 and 0.168 and 0.158 | 0.066 and 0.034 and 0.051 and 0.049 | pSer373 / SPAK (SPAK pSer373; [3]): 0.112 and 0.124 and 0.132 and 0.106; pSer373 / SPAK (SPAK pSer373; [4]): 0.08 and 0.07 and 0.064 and 0.084; pSer373 / SPAK (SPAK pSer373; [5]): 0.034 and 0.025 and 0.043 and 0.026
2 | Cc1cc(C(C#N)c2ccc(Cl)cc2)c(Cl)cc1NC(=O)c1ccccc1O (centres unmarked) [ZT-1b] | 0.309 and 0.287 and 0.264 and 0.27 | 0.122 and 0.114 and 0.1313 and 0.117 | 0.127 and 0.118 and 0.126 and 0.123 | 0.034 and 0.041 and 0.048 and 0.043 | 0.009 and 0.007 and 0.005 and 0.006 | 0.289 and 0.263 and 0.271 and 0.25 | 0.156 and 0.183 and 0.172 and 0.162 | 0.033 and 0.041 and 0.022 and 0.031 | 0.184 and 0.212 and 0.196 and 0.205 | 0.112 and 0.132 and 0.126 and 0.115 | 0.042 and 0.039 and 0.061 and 0.053 | 0.297 and 0.278 and 0.267 and 0.28 | 0.255 and 0.247 and 0.261 and 0.237 | 0.022 and 0.031 and 0.029 and 0.035 | 0.198 and 0.201 and 0.187 and 0.21 | 0.167 and 0.17 and 0.155 and 0.16 | 0.095 and 0.121 and 0.114 and 0.104 | 0.301 and 0.286 and 0.291 and 0.316 | 0.183 and 0.156 and 0.163 and 0.175 | 0.078 and 0.061 and 0.055 and 0.065 | pThrNKCC1 / NKCC1 (NKCC1 pThr203/207/212; [6]): 0.011 and 0.0109 and 0.016 and 0.013; pSer373 / SPAK (SPAK pSer373; [3]): 0.103 and 0.127 and 0.137 and 0.117; pSer373 / SPAK (SPAK pSer373; [4]): 0.087 and 0.09 and 0.06 and 0.076; pSer373 / SPAK (SPAK pSer373; [5]): 0.055 and 0.039 and 0.041 and 0.047
